Structures are written as SMILES. Like-named read-outs stand apart in the source and are kept apart here.

Test [1] concerns the target human 5-HT6 receptor (Homo sapiens, UniProt P50406). In words: 5HT6 radioligand binding assay ([3H] LSD). Conditions: read-out: %inhibition 5HT6.
Experimental: 5HT6 ASSAY : Evaluation of the affinity of compounds for the human 5-HT6 receptor in transfected HEK 293 cells determined in a radioligand binding assay. Cell membrane homogenates (15-20 µg protein) were incubated for 60 min at 37°C with 2 nM [^3H] LSD in the absence or presence of the test compound in a buffer containing 50 mM Tris-HCl (pH 7.4), 10 mM MgCl2 and 0.5 mM EDTA. Nonspecific binding was determined in the presence of 100 µM 5-HT. Following incubation, the samples were filtered rapidly under vacuum through glass fiber filters (GF/B, Packard) presoaked with 0.3% PEI and rinsed several times with ice-cold 50 mM Tris-HCl using a 96-sample cell harvester (Unifilter, Packard). The filters were dried then counted for radioactivity in a scintillation counter (Topcount, Packard) using a scintillation cocktail (Microscint 0, Packard).
The specific ligand binding to the receptor is defined as the difference between the total binding and the non specific binding determined in the presence of an excess of unlabelled ligand. The results are expressed as a percentage of control specific binding and as a percentage inhibition of control specific binding obtained in the presence of the compounds.
Test [2] deals with T1, human 5-HT2C receptor (Homo sapiens, UniProt P28335).
T1 construct: expressed in transfected cells; host or cells: CHO cells
T1 sequence (P28335 33-458): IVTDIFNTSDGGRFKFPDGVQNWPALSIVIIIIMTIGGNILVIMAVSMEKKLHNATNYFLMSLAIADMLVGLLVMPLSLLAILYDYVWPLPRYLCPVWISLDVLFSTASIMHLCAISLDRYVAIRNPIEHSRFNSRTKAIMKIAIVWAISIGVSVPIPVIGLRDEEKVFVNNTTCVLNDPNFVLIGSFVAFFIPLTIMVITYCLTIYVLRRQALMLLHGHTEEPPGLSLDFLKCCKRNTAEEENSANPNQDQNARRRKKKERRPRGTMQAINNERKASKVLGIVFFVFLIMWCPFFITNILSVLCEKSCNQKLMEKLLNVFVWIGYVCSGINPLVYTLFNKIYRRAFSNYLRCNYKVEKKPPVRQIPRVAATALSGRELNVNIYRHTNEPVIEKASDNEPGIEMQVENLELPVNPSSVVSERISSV
In words: 5HT2c radioligand binding assay ([3H]mesulergine). Conditions: inhibition of control specific binding; at 1µM (concentration printed only in head of Cpd A); transfected CHO cells.

For test [3], the target named is human dopamine D3 receptor (Homo sapiens, UniProt P35462). In words: D3 radioligand binding assay ([3H]spiperone). The settings on record: read-out: %inhibition D3.
Experimental: Nonspecific binding was determined in the presence of 10 µM (+)butaclamol. Following incubation, the samples were filtered rapidly under vacuum through glass fiber filters (GF/B, Packard) presoaked with 0.3% PEI and rinsed several times with ice-cold 50 mM Tris-HCl using a 96-sample cell harvester (Unifilter, Packard). The filters were dried then counted for radioactivity in a scintillation counter (Topcount, Packard) using a scintillation cocktail (Microscint 0, Packard). The specific ligand binding to the receptor is defined as the difference between the total binding and the non specific binding determined in the presence of an excess of unlabelled ligand. The results are expressed as a percentage of control specific binding and as a percentage inhibition of control specific binding obtained in the presence of the compounds.
The target of test [4] is human dopamine D2S receptor (Homo sapiens, UniProt P14416). Put plainly: D2 radioligand binding assay ([3H]spiperone). The settings on record: read-out: %inhibition D2.
The target of test [5] is T2, human 5-HT2A receptor (Homo sapiens, UniProt P28223).
T2 construct: expressed in transfected cells; host or cells: HEK-293 cells
In words: 5HT2a radioligand binding assay ([3H]ketanserin). The settings on record: inhibition of control specific binding; at 1µM (concentration printed only in head of Cpd A); human recombinant.

Test [6] deals with non-selective sigma receptor. In words: σ radioligand binding assay ([3H]DTG). Conditions: inhibition of control specific binding; at 1µM (concentration printed only in head of Cpd A); rat cerebral cortex.
Where [7] appears, read: inhibition of control specific binding, at 1µM (concentration printed only in head of Cpd A), transfected CHO cells.

human dopamine D2S receptor, sequence (P14416 1-414 isoform P14416-2): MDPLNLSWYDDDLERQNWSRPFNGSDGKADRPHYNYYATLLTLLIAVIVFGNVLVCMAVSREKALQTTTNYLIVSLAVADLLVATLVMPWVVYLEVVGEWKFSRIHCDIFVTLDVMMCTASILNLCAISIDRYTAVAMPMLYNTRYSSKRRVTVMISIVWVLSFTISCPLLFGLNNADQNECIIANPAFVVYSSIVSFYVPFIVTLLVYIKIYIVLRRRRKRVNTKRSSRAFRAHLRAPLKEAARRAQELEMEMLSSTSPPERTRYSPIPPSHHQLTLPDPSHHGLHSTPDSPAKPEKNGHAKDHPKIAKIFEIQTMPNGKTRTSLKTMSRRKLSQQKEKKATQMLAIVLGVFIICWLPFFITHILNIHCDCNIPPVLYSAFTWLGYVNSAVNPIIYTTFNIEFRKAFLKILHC
human dopamine D3 receptor, sequence (P35462 whole entry): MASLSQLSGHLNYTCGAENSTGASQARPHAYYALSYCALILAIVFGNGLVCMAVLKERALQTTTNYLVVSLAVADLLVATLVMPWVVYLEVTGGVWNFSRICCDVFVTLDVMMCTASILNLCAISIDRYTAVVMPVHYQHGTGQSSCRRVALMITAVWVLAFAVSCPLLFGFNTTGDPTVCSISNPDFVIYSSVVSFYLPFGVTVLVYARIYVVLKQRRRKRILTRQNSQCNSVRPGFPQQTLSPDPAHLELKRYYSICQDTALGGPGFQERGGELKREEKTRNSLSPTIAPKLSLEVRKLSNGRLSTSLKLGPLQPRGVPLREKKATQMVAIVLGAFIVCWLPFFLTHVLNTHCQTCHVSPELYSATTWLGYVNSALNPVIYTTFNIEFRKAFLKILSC
T2 sequence (P28223 whole entry): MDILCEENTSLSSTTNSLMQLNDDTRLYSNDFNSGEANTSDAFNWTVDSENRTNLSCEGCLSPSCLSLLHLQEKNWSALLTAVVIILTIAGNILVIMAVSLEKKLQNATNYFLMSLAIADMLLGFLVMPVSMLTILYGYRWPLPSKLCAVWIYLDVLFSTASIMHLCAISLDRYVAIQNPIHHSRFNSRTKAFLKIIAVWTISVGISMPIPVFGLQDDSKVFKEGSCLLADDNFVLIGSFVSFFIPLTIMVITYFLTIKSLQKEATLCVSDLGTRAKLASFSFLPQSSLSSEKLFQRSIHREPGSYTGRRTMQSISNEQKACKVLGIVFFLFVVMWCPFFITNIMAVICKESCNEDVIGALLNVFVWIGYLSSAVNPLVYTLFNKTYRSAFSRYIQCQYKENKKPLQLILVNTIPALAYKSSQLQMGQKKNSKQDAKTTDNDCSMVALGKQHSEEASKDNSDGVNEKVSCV
human 5-HT6 receptor, sequence (P50406 whole entry): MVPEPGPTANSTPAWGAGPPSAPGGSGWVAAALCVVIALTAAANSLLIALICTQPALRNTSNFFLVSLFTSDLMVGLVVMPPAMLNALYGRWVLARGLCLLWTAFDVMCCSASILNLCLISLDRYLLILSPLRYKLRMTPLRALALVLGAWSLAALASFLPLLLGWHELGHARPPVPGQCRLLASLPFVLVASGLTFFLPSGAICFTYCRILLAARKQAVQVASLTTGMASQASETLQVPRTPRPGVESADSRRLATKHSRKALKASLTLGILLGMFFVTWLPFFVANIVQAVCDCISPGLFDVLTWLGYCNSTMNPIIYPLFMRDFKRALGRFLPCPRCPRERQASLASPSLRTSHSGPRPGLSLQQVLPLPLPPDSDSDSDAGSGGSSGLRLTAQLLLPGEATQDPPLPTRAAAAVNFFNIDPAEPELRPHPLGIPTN

For orientation: inhibition means the percentage by which the read-out fell short of the control. Consider `CNCCO[C@]1(c2ccccc2)C[C@H]2CC[C@]1(C)C2(C)C` [Cpd D, (1R,2S,4R)-(-)-2-methylaminoethoxy-2-phenyl-1,7,7-trimethyl-bicyclo[2.2.1]heptane], for which the inhibition at 1 µM in test [1] was determined as 89%; in test [2] it was 97%; in test [3] (setting [7]), 81%; in test [4] (setting [7]) it was 57%; in test [5], 98%.

With `CNCCO[C@@]1(c2ccccc2)C[C@@H]2CC[C@@]1(C)C2(C)C` [Cpd C, (1S,2R,4S)-(+)-2-methylaminoethoxy-2-phenyl-1,7,7-trimethyl-bicyclo[2.2.1]heptane], the inhibition at 1 µM in test [1] turned out to be 36%; in test [2], 65%; in test [3] (setting [7]) it was 24%; in test [4] (setting [7]), 10%; in test [5], 89%.

For the compound `CN(C)CCO[C@@]1(c2ccccc2)C[C@@H]2CC[C@@]1(C)C2(C)C` [Cpd A, (1S,2R,4S)-(+)-2-[N,N-(dimethylaminoethoxy)]-2-phenyl-1,7,7-trimethyl-bicyclo[2.2.1]heptane], the “%inhibition σ” value in test [6] was 56%. Besides, the inhibition at 1 µM came out at 44% in test [1]; 79% in test [2]; 32% in test [3]; 29% in test [4]; 93% in test [5].

On to `CN(C)CCO[C@]1(c2ccccc2)C[C@H]2CC[C@]1(C)C2(C)C` [Cpd B, (1R,2S,4R)-(-)-2-[N,N-(dimethylaminoethoxy)]-2-phenyl-1,7,7-trimethyl-bicyclo[2.2.1]heptane], for which the “%inhibition σ” value in test [6] stood at 72%. Moreover, the inhibition at 1 µM in test [1] is 88%; in test [2], 99%; in test [3], 89%; in test [4], 74%; in test [5], 99%.

The values are drawn from patent EP1500391A1, “Therapeutic use of bicycloheptane derivatives” (NEURO3D, priority 2003, dated 2005).
